Counter-ions that a name gives are not always drawn.

In turn, `CCOC(=O)C1CCCN(C(=O)N2CCC(Nc3ccc(CCNC[C@H](O)c4ccc(O)c(NS(C)(=O)=O)c4)cc3)CC2)C1` (stereo partly drawn) (as salt: salt) [Example 78, 1-[[4-[[4-[2-[[(2R)-2-Hydroxy-2-[4-hydroxy-3-[(methylsulfonyl)amino]phenyl]ethyl]amino]ethyl]phenyl]amino]-1-piperidinyl]carbonyl]-3-piperidine Carboxylic Acid, Ethyl Ester] displayed a melting point of 106 to 108 °C.

Regarding `CCCCCCCCNC(=O)N1CCC(Nc2ccc(CCNC[C@H](O)COc3ccc(O)c(NS(C)(=O)=O)c3)cc2)CC1` (as salt: salt) [Example 66, 4-(4-{2-[(2S)-2-Hydroxy-3-(4-hydroxy-3-methanesulfonylamino-phenoxy)-propylamino]-ethyl}-phenylamino)-piperidine-1-carboxylic Acidoctylamide], the melting point is 115 to 117 °C.

Molecule `CCCCCCCCNC(=O)N1CCC(Nc2ccc(CCNC[C@H](O)COc3cccc(NC(C)=O)c3)cc2)CC1` [Example 63, 4-(4-{2-[(2S)-3-(3-Acetylamino-phenoxy)-2-hydroxy-propylamino]-ethyl}-phenylamino)-piperidine-1-carboxylic Acid Octylamide] had a melting point of 73 to 74 °C.

In turn, `COc1c(C(=O)N2CCC(Nc3ccc(CCNC[C@H](O)COc4cccc(NC(C)=O)c4)cc3)CC2)sc2ccccc12` (as salt: salt) [Example 98, N-{3-[(2S)-2-Hydroxy-3-(2-{4-[1-(3-methoxy-benzo[b]thiophene-2-carbonyl)-piperidin-4-ylamino]-phenyl}-ethylamino)-propoxy]-phenyl}-acetamide] showed a melting point of 96 to 98 °C.

Molecule `CCCCCCNC(=O)Nc1ccc(C(=O)N2CCC(Nc3ccc(CCNC[C@H](O)COc4ccc(O)cc4)cc3)CC2)cc1` [Example 93, 1-Hexyl-3-{4-[4-(4-{2-[(2S)-2-hydroxy-3-(4-hydroxy-phenoxy)-propylamino]-ethyl}-phenylamino)-piperidine-1-carbonyl]-phenyl}-urea] showed a melting point of 108 to 111 °C.

The molecule `O=C(NC1CCCCC1)N1CCC(Nc2ccc(CCNC[C@H](O)COc3ccc(O)cc3)cc2)CC1` (as salt: salt) [Example 2] returned a melting point of 77 to 86 °C.

Take `CCN(CC)C(=O)N1CCC(Nc2ccc(CCNC[C@H](O)COc3ccc(O)cc3)cc2)CC1` [Example 14, 4-(4-{2-[(2S)-2-Hydroxy-3-(4-hydroxy-phenoxy)-propylamino]-ethyl}-phenylamino)-piperidine-1-carboxylic Acid Diethylamide]: the melting point was in the range of 61 to 65 °C.

In the case of `COc1cccc(CCNC(=O)N2CCC(Nc3ccc(CCNC[C@H](O)COc4ccc(O)cc4)cc3)CC2)c1` (as salt: salt) [Example 6, 4-(4-{2-[(2S)-2-Hydroxy-3-(4-hydroxy-phenoxy)-propylamino]-ethyl}-phenylamino)-piperidine-1-carboxylic Acid [2-(3-methoxy-phenyl)-ethyl]-amide], the melting point lay within 103 to 108 °C.

For the molecule `CCCCCCCCNC(=O)N1CCC(Nc2ccc(CCNC[C@H](O)COc3ccc(NS(C)(=O)=O)cc3)cc2)CC1` [Example 22, 4-(4-{2-[(2S)-2-Hydroxy-3-(4-methanesulfonylamino-phenoxy)-propylamino]-ethyl}-phenylamino)-piperidine-1-carboxylic Acid Octylamide], the melting point was in the range of 89 to 95 °C.

In the case of `C=CCc1ccccc1OC[C@@H](O)CNCCc1ccc(NC2CCN(C(=O)NCCCCCCCC)CC2)cc1` (as salt: salt) [Example 4, 4-(4-{2-[(2S)-3-(2-Allyl-phenoxy)-2-hydroxy-propylamino]-ethyl}-phenylamino)-piperidine-1-carboxylic Acid Octylamide], the melting point is 73 to 80 °C.

Consider `COc1ccc2[nH]c(C(=O)N3CCC(Nc4ccc(CCNCC(O)COc5ccc(O)cc5)cc4)CC3)cc2c1` (stereo not drawn) (as salt: salt) [Example 94, [4-(4-{2-[2-Hydroxy-3-(4-hydroxy-phenoxy)-propylamino]-ethyl}-phenylamino)-piperidin-1-yl]-(5-methoxy-1H-indol-2-yl)-methanone], for which the melting point lay within 101 to 103 °C.

`O=C(c1cc2cc(Br)ccc2[nH]1)N1CCC(Nc2ccc(CCNC[C@H](O)COc3ccc(O)cc3)cc2)CC1` (as salt: salt) [Example 96, (5-Bromo-1H-indol-2-yl)-[4-(4-{2-[(2S)-2-hydroxy-3-(4-hydroxy-phenoxy)-propylamino]-ethyl}-phenylamino)-piperidin-1-yl]-methanone] had a melting point of 114 to 116 °C.

With `CCCCCCCCNC(=O)N1CCC(C(=O)N2CCC(Nc3ccc(CCNC[C@H](O)COc4ccc(O)cc4)cc3)CC2)CC1` (as salt: salt) [Example 92, 4-[4-(4-{2-[(2S)-2-Hydroxy-3-(4-hydroxy-phenoxy)-propylamino]-ethyl}-phenylamino)-piperidine-1-carbonyl]-piperidine-1-carboxylic Acidoctylamide], the melting point was in the range of 88 to 91 °C.

Consider `COc1c(C(=O)N2CCC(Nc3ccc(CCNC[C@H](O)COc4ccc(O)cc4)cc3)CC2)sc2ccccc12` (as salt: salt) [Example 97, [4-(4-{2-[(2S)-2-Hydroxy-3-(4-hydroxy-phenoxy)-propylamino]-ethyl}-phenylamino)-piperidin-1-yl]-(3-methoxy-benzo[b]thiophen-2-yl)-methanone], for which the melting point was 84 to 86 °C.

As to `CCCCCCNC(=O)Nc1ccc(S(=O)(=O)N2CCC(Nc3ccc(CCNC[C@H](O)COc4ccc(O)cc4)cc3)CC2)cc1` (as salt: hydrochloride) [Example 108, 1-Hexyl-3-{4-[4-(4-{2-[(2S)-2-hydroxy-3-(4-hydroxy-phenoxy)-propylamino]-ethyl}-phenylamino)-piperidine-1-sulfonyl]-phenyl}-urea], the melting point was in the range of 165 to 168 °C.

In turn, `O=C(NCc1ccc(F)cc1)N1CCC(Nc2ccc(CCNC[C@H](O)COc3ccc(O)cc3)cc2)CC1` (as salt: salt) [Example 1, 4-(4-{2-[(2S)-2-Hydroxy-3-(4-hydroxy-phenoxy)-propylamino]-ethyl}-phenylamino)-piperidine-1-carboxylic Acid 4-fluoro-benzylamide] gave a melting point of 89 to 91 °C.

The molecule `O=C(NCc1ccc(Cl)c(Cl)c1)N1CCC(Nc2ccc(CCNC[C@H](O)COc3ccc(O)cc3)cc2)CC1` (as salt: ammonium) [Example 21, 4-(4-{2-[(2S)-2-Hydroxy-3-(4-hydroxy-phenoxy)-propylamino]-ethyl}-phenylamino)-piperidine-1-carboxylic Acid 3,4-dichloro-benzylamide] returned a melting point of 94 to 97 °C.

Consider `CCNC(=O)N1CCC(Nc2ccc(CCNC[C@H](O)COc3ccc(O)cc3)cc2)CC1` (as salt: salt) [Example 10, 4-(4-{2-[(2S)-2-Hydroxy-3-(4-hydroxy-phenoxy)-propylamino]-ethyl}-phenylamino)-piperidine-1-carboxylic Acid Ethylamide], for which the melting point lay in the range of 81 to 85 °C.

With `Cc1ccsc1C(=O)N1CCC(Nc2ccc(CCNC[C@H](O)COc3ccc(O)cc3)cc2)CC1` (as salt: salt) [Example 100, [4-(4-{2-[(2S)-2-Hydroxy-3-(4-hydroxy-phenoxy)-propylamino]-ethyl}-phenylamino)-piperidin-1-yl]-(3-methyl-thiophen-2-yl)-methanone], the melting point is 88 to 90 °C.

Molecule `O=C(O)COc1ccc(NC(=O)N2CCC(Nc3ccc(CCNC[C@H](O)COc4ccc(O)cc4)cc3)CC2)cc1` (as salt: salt) [Example 58, (4-{[4-(4-{2-[(2S)-2-Hydroxy-3-(4-hydroxy-phenoxy)-propylamino]-ethyl}-phenylamino)-piperidine-1-carbonyl]-amino}-phenoxy)-acetic Acid] came in with a melting point of 175 °C.

In the case of `O=C(c1n[nH]c2ccccc12)N1CCC(Nc2ccc(CCNC[C@H](O)COc3ccc(O)cc3)cc2)CC1` (as salt: salt) [Example 102, [4-(4-{2-[(2S)-2-Hydroxy-3-(4-hydroxy-phenoxy)-propylamino]-ethyl}-phenylamino)-piperidin-1-yl]-(1H-indazol-3-yl)-methanone], the melting point lay within 111 to 113 °C.

With `CCCCCCCCNC(=O)N1CCC(Nc2ccc(CCNC[C@H](O)c3cccc(Cl)c3)cc2)CC1` (as salt: salt) [Example 36, 4-(4-{2-[(2R)-2-(3-Chloro-phenyl)-2-hydroxy-ethylamino]-ethyl}-phenylamino)-piperidine-1-carboxylic Acid Octylamide], the melting point is 168 to 171 °C.

Molecule `C=CCc1ccccc1OC[C@@H](O)CNCCc1ccc(NC2CCN(S(=O)(=O)c3ccc(N(CCCCCC)C(N)=O)cc3)CC2)cc1` [Example 110, N-[4-({4-[4-(2-{[(2S)-3-(2-allylphenoxy)-2-hydroxypropyl]amino}ethyl)anilino]-1-piperidinyl}sulfonyl)phenyl]-N-hexylurea] came in with a melting point of 68 to 70 °C.

`Cc1ccsc1C(=O)N1CCC(Nc2ccc(CCNC[C@H](O)COc3cccc4[nH]c(=O)[nH]c34)cc2)CC1` (as salt: salt) [Example 101, 4-[(2S)-2-Hydroxy-3-(2-{4-[1-(3-methyl-thiophene-2-carbonyl)-piperidin-4-ylamino]-phenyl}-ethylamino)-propoxy]-1,3-dihydro-benzoimidazol-2-one] came in with a melting point of 128 to 130 °C.

The molecule `CC(=O)Nc1ccc(S(=O)(=O)N2CCC(Nc3ccc(CCNC[C@H](O)COc4ccc(O)cc4)cc3)CC2)cc1` (as salt: salt) [Example 114, N-{4-[4-(4-{2-[(2S)-2-Hydroxy-3-(4-hydroxy-phenoxy)-propylamino]-ethyl}-phenylamino)-piperidine-1-sulfonyl]-phenyl}-acetamide] yielded a melting point of 98 to 104 °C.

As for `CC(C)NC(=O)N1CCC(Nc2ccc(CCNC[C@H](O)COc3ccc(O)cc3)cc2)CC1` (as salt: salt) [Example 11], the melting point lay in the range of 89 to 96 °C.

For `CNC(=O)N1CCC(Nc2ccc(CCNC[C@H](O)COc3ccc(O)cc3)cc2)CC1` (as salt: salt) [Example 9, 4-(4-{2-[(2S)-2-Hydroxy-3-(4-hydroxy-phenoxy)-propylamino]-ethyl}-phenylamino)-piperidine-1-carboxylic Acid Methylamide], the melting point was 72 to 77 °C.
